The source of these data is patent US12077495B2 (priority 2018, dated 2024).

Structures are written as SMILES.

The target of test [1] is T1, GABAB receptor (Rattus norvegicus, UniProt Q9Z0U4).
T1 construct: using crude synaptic membranes prepared from rat cortex; from tissue; host or cells: rat cortex, crude synaptic membranes
The test is described as follows: 3H-GABA binding assay for GABAB, rat cortex membranes. To be noted: up to concentrations of 1 mM. How it is done:
Following incubation by rapid filtration through GF/C unifilters (PerkinElmer, Boston, MA, USA), using a 96-well Packard cell-harvester (PerkinElmer) and three fast washes with ice-cold binding buffer, microscint scintillation fluid (PerkinElmer) was added to the dried filters, and the amount of filter-bound radioactivity was quantified in a Packard TopCount microplate scintillation counter (PerkinElmer). […] The binding reactions were terminated by rapid filtration through GF/C filters (Whatman), soaked in 0.1% polyethylene imine, using a Brandell 48-well harvester and rapid washing with ice-cold binding buffer. […] Data are presented as % specific binding (of control), and IC50 or Ki values calculated by means of non-linear regression curve-fitting and the Cheng-Prusoff equation, respectively.

Test [2] deals with photothrombotic focal ischemia in C57BL/6J mice. Put plainly: Photothrombotic mouse model of focal ischemia, infarct volume. Format: in vivo. The following applies: for infarct volume: saline 9.38. How it is done: All procedures were performed in accordance with the guidelines on the care and use of laboratory animals set out by the University of Otago, Animal Research Committee and the Guide for Care and Use of Laboratory Animals (NIH Publication No. 85-23, 1996). All in vivo studies were approved by the University of Otago Animal Ethics Committee and are reported according to the ARRIVE (Animal Research: Reporting In Vivo Experiments) guidelines. The photochemical cortical lesion model resembles situations of acute brain injury related clinically to stroke and traumatic brain injury (TBI). Focal ischemia was induced by photothrombosis in male C57BL/6J mice (8-10 weeks) weighing ˜23-30 g as previously described (Clarkson et al., 2010). Under anesthesia with isoflurane (2% to 2.5% in O2) mice were placed in a stereotactic apparatus, the skull exposed through a midline incision, cleared of connective tissue and dried. A cold light source (KL1500 LCD, Zeiss, Auckland, New Zealand) attached to a 40× objective providing a 2-mm diameter illumination was positioned 1.5 mm lateral from bregma. Then, 0.2 ml of Rose Bengal (Sigma-Aldrich, Auckland, New Zealand; 10 mg/ml in normal saline) was administered i.p. After 5 min, the brain was illuminated through the exposed intact skull for 15 min, while keeping body temperature at 37.0±0.3° C. degrees using a heating pad (Harvard apparatus, Holliston, MA, USA). The skin was glued and animals left in a cage placed on a heating pad during the wake-up phase. Mice were housed under a 12-hr light/dark cycle with ad libitum access to food and water. Further, the mice were monitored and weighed on a daily basis.
For in vivo studies, all compounds were dissolved in a mixture of sterile saline and H2O to obtain isotonicity (0.9%) and administered as 10 mg/ml and 10 μl of solution per gram mouse body weight. The injection of compound (i.p.) was performed 30 min, 3, 6 or 12 hrs after induction of the photothrombotic stroke. The vehicle groups received a corresponding volume of saline (0.9%) at the same time points (30 min, 3, 6 or 12 hrs).
For quantification of the infarcted area, animals were perfused with saline and then with 4% paraformaldehyde (PFA) and the brain dissected out and submerged in 4% PFA for post-fixing overnight. Then the brains were moved to 30% sucrose solution and kept at 4° C. until processing. Brains were cut in 30 μm sections, free-floating in anti-freeze media. Sections were mounted, stained for cresyl violet and the infarct volumes determined by measuring every 6th section through the entire infarct as described in Lie et al (2017). All analyses were performed by an observer blinded to the treatment groups. Brains from the pMCAO studies were flash-frozen in CO2 (gas) and processed into six parallel series of sections (30 μm). Separate series were collected on glass slides and used for infarct size analysis or in Eppendorf tubes and used for qPCR. The glass slides were stored at −80° C. until further processing, and then Cresyl-Violet stained and quantified as described for the photothrombotic photochemical method.

Test [3] concerns permanent middle cerebral artery occlusion in C57BL/6J mice. Put plainly: pMCAO model of focal ischemia, infarct volume. Format: in vivo. The following applies: 175 mg/kg 30 min after pMCAO; day 3; saline 16.6. How it is done: The pMCAO study was performed using age-matched, young adult (7-8 weeks), male C57BL/6J mice (Taconic). Mice were housed in separate cages under diurnal lighting and given free access to food (1314 Altromin) and water. Mice were acclimatized for seven days prior to surgery in accordance with guidelines approved by the Danish Animal Ethical Committee.
Focal cerebral ischemia was made by permanent occlusion of the distal part of the left middle cerebral artery (MCA). Mice were anesthetized by injection of a mixture of Hypnorm (fentanyl citrate 0.315 mg/ml and fluanisone 10 mg/ml; Jansen-Cilag), Stesolid (5 mg/ml Diazepamum; Dumex) and distilled water (1:1:2; 0.20 ml/10 g body weight, s.c.). The mouse was placed on a 37±0.5° C. warm heating pad and a skin incision was made from eye to ear. […]
For quantification of the infarcted area, animals were perfused with saline and then with 4% paraformaldehyde (PFA) and the brain dissected out and submerged in 4% PFA for post-fixing overnight. […] Sections were mounted, stained for cresyl violet and the infarct volumes determined by measuring every 6th section through the entire infarct as described in Lie et al (2017). […] The glass slides were stored at −80° C. until further processing, and then Cresyl-Violet stained and quantified as described for the photothrombotic photochemical method. […]

The target in test [4] is T1, GABAB receptor. The following applies: cited from earlier work.
Where [5] appears, read: 175 mg/kg i.p. 30 min after stroke, day 3.

T1 sequence (Q9Z0U4 17-960 limits assumed): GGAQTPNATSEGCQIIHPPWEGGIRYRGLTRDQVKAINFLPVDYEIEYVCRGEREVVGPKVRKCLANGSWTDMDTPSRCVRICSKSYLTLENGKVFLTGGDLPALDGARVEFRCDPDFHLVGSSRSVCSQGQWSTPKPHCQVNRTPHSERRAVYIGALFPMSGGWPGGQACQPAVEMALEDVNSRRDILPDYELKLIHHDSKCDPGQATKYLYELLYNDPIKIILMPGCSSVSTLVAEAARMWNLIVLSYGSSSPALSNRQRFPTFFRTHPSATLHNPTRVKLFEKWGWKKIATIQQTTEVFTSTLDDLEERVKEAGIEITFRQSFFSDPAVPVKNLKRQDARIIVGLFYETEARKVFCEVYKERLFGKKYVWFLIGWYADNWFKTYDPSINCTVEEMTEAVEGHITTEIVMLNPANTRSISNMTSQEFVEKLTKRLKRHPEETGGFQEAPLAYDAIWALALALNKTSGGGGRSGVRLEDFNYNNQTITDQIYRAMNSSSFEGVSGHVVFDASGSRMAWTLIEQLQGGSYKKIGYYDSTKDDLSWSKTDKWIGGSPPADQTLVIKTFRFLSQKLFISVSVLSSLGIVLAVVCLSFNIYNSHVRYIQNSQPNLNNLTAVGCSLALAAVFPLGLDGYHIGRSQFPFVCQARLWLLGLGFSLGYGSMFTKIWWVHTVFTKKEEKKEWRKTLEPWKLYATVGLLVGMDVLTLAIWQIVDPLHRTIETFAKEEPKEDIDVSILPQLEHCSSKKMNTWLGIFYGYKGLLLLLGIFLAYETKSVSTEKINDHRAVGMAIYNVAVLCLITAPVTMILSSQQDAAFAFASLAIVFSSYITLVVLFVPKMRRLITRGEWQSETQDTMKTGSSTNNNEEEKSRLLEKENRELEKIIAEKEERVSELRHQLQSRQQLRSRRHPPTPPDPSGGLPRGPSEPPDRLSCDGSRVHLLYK
T1 sequence (O88871 41-940 partner): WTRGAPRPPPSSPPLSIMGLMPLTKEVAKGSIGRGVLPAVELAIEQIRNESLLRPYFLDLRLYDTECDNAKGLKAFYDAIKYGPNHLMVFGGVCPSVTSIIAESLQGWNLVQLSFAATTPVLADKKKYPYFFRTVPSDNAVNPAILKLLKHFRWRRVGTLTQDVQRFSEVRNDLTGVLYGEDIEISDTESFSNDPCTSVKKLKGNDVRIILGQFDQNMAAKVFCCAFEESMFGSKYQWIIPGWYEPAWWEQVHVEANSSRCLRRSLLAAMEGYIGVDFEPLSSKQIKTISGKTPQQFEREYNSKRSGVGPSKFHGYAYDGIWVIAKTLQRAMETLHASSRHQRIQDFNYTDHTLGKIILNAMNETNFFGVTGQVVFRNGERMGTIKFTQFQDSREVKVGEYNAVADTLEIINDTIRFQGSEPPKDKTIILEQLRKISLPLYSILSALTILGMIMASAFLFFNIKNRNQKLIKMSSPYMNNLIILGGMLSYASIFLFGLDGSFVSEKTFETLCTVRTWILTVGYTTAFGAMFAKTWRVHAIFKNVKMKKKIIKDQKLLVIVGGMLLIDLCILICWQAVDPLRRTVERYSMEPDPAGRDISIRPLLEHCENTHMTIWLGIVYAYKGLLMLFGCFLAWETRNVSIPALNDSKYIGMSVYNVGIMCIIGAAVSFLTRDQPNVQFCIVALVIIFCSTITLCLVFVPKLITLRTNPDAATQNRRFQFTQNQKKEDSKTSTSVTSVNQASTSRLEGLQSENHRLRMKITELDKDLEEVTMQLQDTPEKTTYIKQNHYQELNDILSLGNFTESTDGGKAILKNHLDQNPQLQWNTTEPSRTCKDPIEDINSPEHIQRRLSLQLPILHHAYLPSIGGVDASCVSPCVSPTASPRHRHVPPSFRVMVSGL

For the compound `O=C(O)C1=CC(O)CC1` (stereo not drawn) [Compound A, 3-hydroxycyclopent-1-enecarboxylic acid], the “inhibition of 3H-GABA binding to GABAB receptor” value at GABAB receptor [1] is “no ability to compete”. Further, the infarct volume in test [2] (17.5 mg/kg i.p. 30 min after stroke, day 3, not significant) came to 8.95 mm^3; in test [2] (setting [5]) it was 6.56 mm^3; in test [3], 12.3 mm^3. Also, the “decrease of infarct size vs saline” value was 51% in test [2] (90 mg/kg 3 hrs after stroke) and 33-43% in test [2] (175 mg/kg i.p. 3, 6 or 12 hrs after stroke). The infarct size was determined as 2.68 mm^3 in test [2] (90 mg/kg 3 hrs after stroke, saline 5.55); 3.12 mm^3 in test [2] (175 mg/kg i.p. 3 hrs after stroke, saline 5.51); 3.68 mm^3 in test [2] (175 mg/kg i.p. 6 hrs after stroke, saline 5.51); 3.58 mm^3 in test [2] (175 mg/kg i.p. 12 hrs after stroke, saline 5.51). Besides, the “reduction of infarct volume vs saline” value in test [2] (setting [5]) is reported as 30%. Further, the “affinity for the GABAB binding site” value at GABAB receptor [4] is given as “does not display any affinity”.
